For test [1], the target named is T1, recombinant RIPK2 kinase (Homo sapiens, UniProt O43353).
T1 construct: made in house
Description: RIPK2 ADPGlo in vitro kinase assay. It is filed as biochemical. The conditions noted are these: average ± SD of at least three titrations, read-out: IC50, In vitro kinase, RIPK2 ADPGIo. The text has this:
The BIR2 domains of XIAP and cIAP1 were cloned into the pGEX‐6P1 vector and were expressed in E. coli (BL21) cells as a fusion protein with N‐terminal 6xHis (XIAP BIR2 only) and GST tags. Protein expression was induced with IPTG, and cells were lysed using BugBuster protein extraction reagent (#70921, Merck Millipore) according to manufacturer's instructions. Proteins were purified with the FPLC protein purification system ÄKTA PrimePlus (GE Healthcare Life Sciences) using HisTrap FF column purification followed by gel filtration (HiLoad 26/600 Superdex 75 pg (GE Healthcare Life Sciences)). Collected fractions were stored at −80°C and used for probing of peptide array membranes. Expression and purification of recombinant RIPK1‐3 was performed as previously described (Canning et al, 2015; Najjar et al, 2015). RIPK1‐3 ADPGlo kinase assays using 20 ng/well protein were performed for 2 h at room temperature also as previously described (Canning et al, 2015; Najjar et al, 2015).
(In ADP-Glo the light output rises with the ADP produced.)

Test [2] relates to NOD2/HEKBlue cells. Briefly: hNOD2-HEKBlue L18-MDP-induced NF-κB reporter assay. It is filed as cell-based, human. The conditions noted are these: Homo sapiens, HEK-Blue; L18-MDP-induced NF-κB reporter; average ± SD of at least three titrations. As for the experimental part: For HEKBlue assay, cells were seeded into clear 96‐well plates at 7.5 × 10^3 cells/well and allowed to attach for 48 h. On the day of the experiment, media was changed to 100 μl of HEKBlue detection media (InvivoGen). Inhibitors were diluted and added in 0.5 μl DMSO 15 min prior to the addition of 1 ng/ml L18‐MDP (InvivoGen). After 8–9 h, absorbance at 620 nm was measured using Victor3V plate reader (Perkin Elmer, Waltham, MA). Values of media‐only wells were subtracted and %inhibition for each compound concentration relative to the DMSO/L18‐MDP‐treated controls was calculated. Inhibition values ± SD were fitted by non‐linear regression using Prism software (GraphPad Software, La Jolla, CA) to calculate IC50 values. For THP1Blue assay, 1 × 10^5 cells were seeded in 200 μl of RPMI media in 96‐well plates and treated with inhibitors in 0.5 μl DMSO for 15 min prior to the addition of 10 μg/ml MDP, 10 ng/ml Pam3CSK4, 10 ng/ml E. coli LPS, or 1 × 10^7 cells/ml heat‐killed L. monocytogenes (InvivoGen) for 24 h. After induction, 20 μl of media was mixed with 180 μl of QUANTI‐Blue reagent (InvivoGen) and incubated at 37°C for 3–4 h, followed by absorbance measurement at 620 nm. IC50 values were calculated as described for HEKBlue assay.
Cayman Chemical Company, Ann Arbor, MI), GSK583 (#HY-100339, MedChem Express, South Brunswick, NJ), WEHI-345 (MedKoo Biosciences, Morrisville, NC), Compound A (CpA, a kind gift from TetraLogic Pharmaceuticals, Malvern, PA). Generation of the CSLP compound series is described in Suebsuwong et al. 2018 (manuscript in preparation). hNOD2-HEKBlue and THP1Blue assays
For HEKBlue assay, cells were seeded into clear 96 well plates at 7.5x10^3 cells/well and allowed to attach for 48 h. On the day of the experiment, media was changed to 100 μl of HEKBlue detection media (InvivoGen). Inhibitors were diluted and added in 0.5 μl DMSO 15 min prior to the addition of 1 ng/ml L18-MDP (InvivoGen). After 8-9 h, absorbance at 620 nm was measured using Victor3V plate reader (Perkin Elmer, Waltham, MA). Values of media-only wells were subtracted and %inhibition for each compound concentration relative to the DMSO/L18-MDP-treated controls were calculated.
Inhibition values + StDev were fitted by non-linear regression using Prism software (GraphPad Software, La Jolla, CA) to calculate IC50 values. For THP1Blue assay, 1x10^5 cells were seeded in 200 μl of RPMI media in 96 well plates and treated with inhibitors in 0.5 μl DMSO 15 min prior to the addition of 10 µg/ml MDP, 10 ng/ml Pam3CSK4, 10 ng/ml E. coli LPS or 1x10^7 cells/ml heat-killed L. monocytogenes (InvivoGen) for 24 h. After induction, 20 μl of media was mixed with 180 μl of QUANTI-Blue reagent (InvivoGen) and incubated at 37 °C for 3-4 h, followed by absorbance measurement at 620 nm. IC50 values were calculated as described for HEKBlue assay. […]
On the technique in general: A reporter such as luciferase makes a cellular process visible.

Test [3] deals with T2, NanoLuc-RIPK2 (Homo sapiens, UniProt O43353).
T2 construct: host or cells: hNOD2-HEKBlue cells
Description: nanoBRET cellular RIPK2 target engagement assay in HEKBlue cells. The note with it: average ± SD of at least three titrations, read-out: IC50, Cellular activity, nanoBRET RIPK2 binding. Background: BRET reads energy transfer from a luciferase to a nearby fluorophore.

For test [4], the target named is T2, NanoLuc-RIPK2. Briefly: nanoBRET cellular RIPK2 residence time assay in HEKBlue cells. The test is classed as binding. The note with it: t1/2 for probe to engage RIPK2 after washout of inhibitor.
Test [5] relates to U2OS/NOD2 cells. Description: Intracellular flow cytometry of CXCL8 after L18-MDP. The test is classed as cell-based, human. The note with it: U2OS/NOD2 cells, L18-MDP 200 ng/ml, 4 h. How it is done: Purified material and lysates were analyzed by immunoblotting. […] Numbering below schematic refers to amino acid residues in human RIPK2 and indicate domain boundaries. […] Data information: Data in (A, B, D, H) represent the mean ± SEM of 2–4 independent experiments, each performed in duplicate. […] Two‐way ANOVA was used to determine statistical significance. See also Fig EV1.Source data are available online for this figure.
Dark gray represents areas occupied by RIPK2; white areas indicate empty spaces in CSLP binding pocket. […] Dotted black box indicates region shown for models with CSLP37 and CSLP43. • Molecular docking model of RIPK2 kinase domain in complex with CSLP43 (green) based on RIPK2/CSLP18 structure from (D). […] Two‐way ANOVA was used to determine statistical significance. See also Fig EV2.
GST-BIR2-XIAP as indicated. Intensity quantification of SPOTs was performed using ImageJ software
Dual luciferase reporter assay
Intracellular flow cytometry of CXCL8
for cell death) or vehicle for 24h. Viability was determined using the CellTiter-Glo® luminescent cell
together with Transfection Carrier DNA (Promega).
After addition of Nano-Glo

The subject of test [6] is RIPK2 ubiquitination in U2OS/NOD2 and THP-1 cells. Briefly: Purification of Ub-conjugates (TUBE pulldown), RIPK2 ubiquitination. The test is classed as cell-based, human. The conditions noted are these: U2OS/NOD2 or THP-1 cells, L18-MDP 200 ng/ml, 1 h. How it is done:
For co‐immunoprecipitation of HA‐XIAP with RIPK2, transfected and treated cells were lysed in TBS buffer containing 0.5% NP‐40, cOmplete and PhosSTOP inhibitors (Roche) and the lysate was cleared by centrifugation. The lysates were incubated with anti‐HA‐agarose overnight, washed 3× with lysis buffer, and analyzed by immunoblotting. For GST pulldown experiments, U2OS/NOD2 cells were lysed in TBS lysis buffer containing 0.5% NP‐40, cOmplete and PhosSTOP inhibitors (Roche). Cleared lysates were pretreated with kinase inhibitors or DMSO and incubated with GST‐XIAP‐BIR2 bound to Glutathione Sepharose at 4°C overnight. Bound material was washed 3× with lysis buffer or PBS, eluted with 15 mM Glutathione in PBS, and analyzed by immunoblotting. […] The bound material was eluted and analyzed as described above. […]
PBS, eluted with 15 mM Glutathione in PBS and analyzed by immunoblotting. […]

Test [7] addresses T3, His6‐GST‐XIAP‐BIR2 D214S (UniProt P98170 124-242, D214S).
T3 construct: not restated for the mutant; also called D214S BIR2 domain; D214S mutant; source: E. coli (BL21), purified (HisTrap FF, gel filtration); not shown: His6, N-terminal, kept; GST, N-terminal, kept
Briefly: peptide or protein array; SPOT assay: selected RIPK2 peptides and their Ala-/Leu-scan variants spotted in triplicate on cellulose, probed with 6xHis-GST-BIR2 of XIAP (WT or D214S), detected with anti-His-HRP, spots quantified with ImageJ. The conditions noted are these: both partners purified.

A word on the IC50: it is the concentration at which inhibition is half-maximal. For the molecule `CCCS(=O)(=O)Nc1cc(-c2cc(-c3ccc(N4CCNCC4)cc3)cnc2N)ccc1OC` [CSLP18], the IC50 in test [1] worked out at 31.6 ± 8.7 nM; in test [2], 476 ± 96.7 nM; in test [3], 578 ± 34.1 nM. The same molecule yielded a residence time in test [4] of 66.6 min.

As for `CCCS(=O)(=O)Nc1cc(F)cc(-c2cc(-c3ccc(N4CCNCC4)cc3)cnc2N)c1` [CSLP38], the IC50 in test [1] amounted to 39.1 ± 1.5 nM; in test [2] it was 740 ± 60.7 nM; in test [3], 167 ± 19 nM. This molecule displayed a residence time in test [4] of 106 min.

Take `CCCS(=O)(=O)Nc1cc(-c2cc(-c3ccc(N4CCNCC4)cc3)cnc2C)cc(F)c1OC` [CSLP53]: the IC50 in test [1] is 1410 nM; in test [2] it was 2560 nM; in test [3] it was over 10000 nM.

Regarding `CC(C)(C)S(=O)(=O)c1ccc2nccc(Nc3n[nH]c4ccc(F)cc34)c2c1` [GSK583, 6‐(tert‐Butylsulfonyl)‐N‐(5‐fluoro‐1H‐indazol‐3‐yl)quinolin‐4‐amine, reference compound], the “L18-MDP-induced CXCL8 production” value in test [5] was “inhibited”. In test [6], the “RIPK2 ubiquitination after L18-MDP” value was “antagonized”.

B1: RIPK2 peptide A13 (residues 28‐42) (peptide, UniProt O43353 28-42, looked up)
peptide: ASGTVSSARHADWRV
notes: 15-mer of human RIPK2, residues 28-42 (β2 and the β2‐β3 loop of the N‐lobe of the kinase domain); also called A13 peptide
In the case of B1, in test [7], the binding result is “binds”.

B2: RIPK2 peptide E6 (residues 163–177) (peptide, UniProt O43353 163-177, looked up)
peptide: ADFGLSKWRMMSLSQ
notes: 15-mer of human RIPK2, residues 163-177
As for B2, the binding result in test [7] is listed as “binds”.
